Experimental findings from US20250270170A1, “2,3-DIMETHOXY-5-METHYL-1,4-BENZOQUINONE ALKYL ALCOHOL DERIVATIVE AND USE THEREOF” (BEIJING ANJIANXI BIO-MEDICAL TECHNOLOGY CO., LTD., priority 2021, published 2025) are described below.

Values joined by “and” are separate entries in the source; they are usually repeats but may differ in a detail not shown here. Equal entries are not always repeated.

The nature of series [1]: Example 10: body weight of HT-29 tumor-bearing nude mice. In kind it is in vivo. The conditions noted are these: HT-29 model, DDP 5 mg/kg i.p. QW × 3, R01 18 mg/kg i.g. BID × 28. As to the method:
On D1 of the assay, the HT-29 cells in the logarithmic growth phase were collected, counted and resuspended in serum-free McCoy, and the cell concentration was adjusted to 4×10^7 cells/mL. The cells were pipetted with a pipette to disperse them evenly, and the cells were put into a 50-mL centrifuge tube, which was placed in an ice box. A 1-mL syringe was used to draw the cell suspension, which was injected subcutaneously into the axilla of the front right limb of a nude mouse. Each animal was inoculated with 100 μL (4×10^6 cells/mouse) to establish a HT-29 transplanted tumor model in nude mice. After the inoculation, the animal status and tumor growth were regularly observed. On D12, the tumor diameter was measured using an electronic vernier caliper. The data were input into an Excel spreadsheet to calculate the tumor volume. Tumor-bearing mice in good health and with similar tumor volumes (103 to 179 mm^3) were selected and divided into groups using randomized block method. After the start of the assay, the tumor diameter was measured regularly, the tumor volume was calculated, and the animal body weight was also weighed and recorded.

The test system of series [2] is cisplatin-induced acute kidney damage in mice. The series can be described thus: Example 11: kidney weight and kidney coefficient in cisplatin-induced acute kidney damage model. It is filed as in vivo, C57BL/6J mice. The settings on record: for Kidney coefficient (kidney weight/body weight), x (mean) / Kidney weight after the assay, x (mean): group mean. The method, then: 42 male C57BL/6J mice (age: 6 to 8 weeks, body weight 18-20 g, certificate number: 11400700238365) were purchased from Si Pei Fu (Beijing) Biotechnology Co., Ltd., and raised in an SPF-grade animal room of the Institute of Materia Medica, Chinese Academy of Medical Sciences, at a temperature of 20 to 25° C., a relative humidity of 40% to 70%, and a cycle of 12 hours of light and 12 hours of dark. The animals had free access to water and food. After 3 days of normal feeding, mice with good physical conditions after the veterinary examination were selected for this assay. Before grouping, a marker was used to mark on the base of the animals' tail. After grouping, each animal was marked with an ear cutout (7 mice in each group).
Assay animals: 42 7-week-old male C57 mice were used for animal testing after an adaptive feeding.
Group 1: blank control group;
The preparation of the R01 formulation administration test solution was the same as that in Example 5: an appropriate amount of the R01 formulation was weighed according to the three dosages set in the assay, respectively, and an appropriate volume of 0.5% CMC-Na aqueous solution was added. The mixture was vortexed and sonicated until mixed evenly, to give the administration test solutions with concentrations of […], respectively, which were ready for use.
Animal testing period: 7 days (excluding adaptive feeding), hereinafter referred to as: D1-D7.
1. The first group was a solvent control group: N=7, all mice were males (the same below); • a) 0.5% solution of sodium carboxymethyl cellulose was gavagely administered from D1 to D6 (twice a day for each animal, with an interval of 8 hours between the morning and the afternoon). • b) Physiological saline was intraperitoneally injected in one-time on D4. • c) On D7, blood was collected from the orbit for euthanasia (300 ul of serum was extracted), the left kidney was fixed in formaldehyde, and the right kidney was preserved in liquid nitrogen (WB study may be carried out).
3) Each animal was weighed before euthanasia, and the weight was recorded. Two kidneys were weighed as soon as possible after euthanasia, and the weight was recorded. Then, the two kidneys were quickly fixed or cryopreserved, and the kidney coefficient of the mouse was calculated (kidney weight/mouse weight).
The body weight of the animals when being grouped for administration in each group was recorded. The body weight and the kidney weight at the end of the assay were also recorded, and the kidney coefficient was calculated. The creatinine and urea nitrogen values in the blood samples sent for testing were recorded. The kidneys were stained with HE and PAS, and the slides were scanned. A report was issued after the pathological analysis.
The assay data were calculated and processed statistically using Microsoft Office Excel 2007 software. Unless otherwise specified, the data were expressed as mean±standard error (Mean±SE), and t-test was used for comparison between two groups.

[3] abbreviates: individual animals No. 1-7, cisplatin model, R01 6 mg/kg, listed as R01, 6 mg/kg.
Setting [4] is: individual animals No. 1-7, cisplatin model, R01 18 mg/kg, listed as R01, 18 mg/kg.
Where [5] appears, read: individual animals No. 1-7, cisplatin model, R01 36 mg/kg, listed as R01, 36 mg/kg.

On to `N.N.[Cl][Pt][Cl]` [DDP, cisplatin], for which the “Mean animal body weight ± SE” value in series [1] (D 12 (grouping)) is given as 17.6 ± 0.3 g; in series [1] (D 15) it was 17.2 ± 0.2 g; in series [1] (D 19), 16.9 ± 0.3 g; in series [1] (D 22), 16.3 ± 0.3 g; in series [1] (D 26), 15.8 ± 0.4 g; in series [1] (D 29), 15.3 ± 0.3 g. Also, the “Mean animal body weight ± SE” value in series [1] (D 33) came to 14.8 ± 0.4 g; in series [1] (D 36) it was 14.8 ± 0.4 g; in series [1] (D 40), 14.9 ± 0.4 g. Further, the “body weight loss rate” value is listed as “(2.6%)” in series [1] (D 15); “(3.9%)” in series [1] (D 19); “(7.4%)” in series [1] (D 22); “(10%)” in series [1] (D 26); “(13%)” in series [1] (D 29); “(16%)” in series [1] (D 33). Also, the figures for the “body weight loss rate” value in series [1] (D 36) and in series [1] (D 40) were “(16%)” and “(15%)”, respectively.
`COC1=C(OC)C(=O)C(CCCCCCCCCCOC(=O)Cc2c(C)n(C(=O)c3ccc(Cl)cc3)c3ccc(OC)cc23)=C(C)C1=O` [compound of formula (I)]: the “Kidney coefficient (kidney weight/body weight), x (mean)” value in series [2] (cisplatin model, R01 6 mg/kg) was determined as 0.014; in series [2] (cisplatin model, R01 18 mg/kg), 0.013; in series [2] (cisplatin model, R01 36 mg/kg), 0.013. Also, the “Kidney weight after the assay, x (mean)” value in series [2] (cisplatin model, R01 6 mg/kg) was determined as 0.223 g; in series [2] (cisplatin model, R01 18 mg/kg) it was 0.211 g; in series [2] (cisplatin model, R01 36 mg/kg), 0.207 g. Also, the “Kidney coefficient (kidney weight/body weight)” value in series [2] (setting [3]) is 0.013 (3×) and 0.015 and 0.014 (2×) and 0.018; in series [2] (setting [4]) it was 0.014 (3×) and 0.013 (4×); in series [2] (setting [5]), 0.012 and 0.014 (4×) and 0.013 (2×); in series [2] (with cisplatin 10 mg/kg, amifostine 50 mg/kg i.p., R01 6, 18, 36 mg/kg bid) it was “equivalent to that of the blank control group”. Further, the “Kidney weight after the assay” value in series [2] (setting [3]) was 0.207 g and 0.212 g and 0.209 g and 0.224 g and 0.228 g and 0.214 g and 0.270 g; in series [2] (setting [4]) it was 0.214 g and 0.211 g (2×) and 0.206 g and 0.215 g and 0.210 g and 0.213 g; in series [2] (setting [5]) it was 0.192 g and 0.216 g and 0.203 g and 0.228 g and 0.213 g and 0.189 g and 0.206 g.
